What all share (test): biochemical
Common to all, as to parameters: DiscoverX KinomeScan competition binding assay across human kinases; per cent of control at 10 and 100 uM

Test [1] deals with T1, ABL1(F317I)-nonphosphorylated (Homo sapiens, UniProt P00519, F317I).
T1 construct: nonphosphorylated
The settings on record: competition binding, % of control; read-out: Percent Control (100 uM Levosimendan). In a few lines:
(§1)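 KinomeScan competition binding was run across a human kinase panel at 10 μM and 100 μM levosimendan. Results are %control = (test − positive control)/(negative control − positive control) × 100.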

The target in a further test is ACVR2B (Homo sapiens, UniProt Q13705). As to conditions: competition binding, % of control; read-out: Percent Control (100 uM Levosimendan). In a few lines: as §1
The next test has as its target CSNK1G3 (Homo sapiens, UniProt Q9Y6M4). The settings on record: competition binding, % of control. In outline: as §1
For another test, the target named is EGFR(L747-T751del,Sins) (Homo sapiens, UniProt P00533, DEL747-750/T751S). As to conditions: competition binding, % of control; read-out: Percent Control (100 uM Levosimendan). In a few lines:
as §1

The next test has as its target EGFR(L858R) (Homo sapiens, UniProt P00533, L858R). The settings on record: competition binding, % of control; read-out: Percent Control (100 uM Levosimendan). In outline:
as §1

For another test, the target named is T2, GCN2(Kin.Dom.2,S808G) (Homo sapiens, UniProt Q9P2K8, S808G).
T2 construct: gene EIF2AK4; Kin.Dom.2
As to conditions: competition binding, % of control; read-out: Percent Control (100 uM Levosimendan). In a few lines:
as §1

Another test concerns the target T3, LOK (Homo sapiens, UniProt O94804).
T3 construct: gene STK10
As to conditions: competition binding, % of control; read-out: Percent Control (100 uM Levosimendan). In a few lines: as §1

For a further test, the target named is T4, MST4 (Homo sapiens, UniProt Q9P289).
T4 construct: gene STK26
As to conditions: competition binding, % of control; read-out: Percent Control (100 uM Levosimendan). In outline: as §1

For a further test, the target named is T5, NDR2 (Homo sapiens, UniProt Q9Y2H1).
T5 construct: gene STK38L
As to conditions: competition binding, % of control; read-out: Percent Control (100 uM Levosimendan). In a few lines:
as §1

In the next test the target is PAK4 (Homo sapiens, UniProt O96013). The settings on record: competition binding, % of control; read-out: Percent Control (100 uM Levosimendan). In a few lines: as §1
In another test the target is PIK3C2B (Homo sapiens, UniProt O00750). The settings on record: competition binding, % of control; read-out: Percent Control (100 uM Levosimendan). In outline: as §1
In a further test the target is T6, PKAC-alpha (Homo sapiens, UniProt P17612).
T6 construct: gene PRKACA
The settings on record: competition binding, % of control; read-out: Percent Control (100 uM Levosimendan). In a few lines: as §1

The target in another test is RET(M918T) (Homo sapiens, UniProt P07949, M918T). The settings on record: competition binding, % of control; read-out: Percent Control (100 uM Levosimendan). In a few lines: as §1
Another test deals with ROCK2 (Homo sapiens, UniProt O75116). The settings on record: competition binding, % of control. In outline: as §1
The next test concerns the target SGK2 (Homo sapiens, UniProt Q9HBY8). The settings on record: competition binding, % of control; read-out: Percent Control (100 uM Levosimendan). In a few lines:
as §1

In another test the target is TGFBR1 (Homo sapiens, UniProt P36897). As to conditions: competition binding, % of control. In outline:
as §1

Another test addresses WNK1 (Homo sapiens, UniProt Q9H4A3). As to conditions: competition binding, % of control; read-out: Percent Control (100 uM Levosimendan). In outline: as §1
The target in a further test is T7, p38-delta (Homo sapiens, UniProt O15264).
T7 construct: gene MAPK13
As to conditions: competition binding, % of control; read-out: Percent Control (100 uM Levosimendan). In a few lines:
as §1

Setting [2] is: read-out: Percent Control (10 uM Levosimendan).
Setting [3] is: read-out: Percent Control (100 uM Levosimendan).

Each structure is given as a SMILES string.

TGFBR1, sequence (P36897 whole entry): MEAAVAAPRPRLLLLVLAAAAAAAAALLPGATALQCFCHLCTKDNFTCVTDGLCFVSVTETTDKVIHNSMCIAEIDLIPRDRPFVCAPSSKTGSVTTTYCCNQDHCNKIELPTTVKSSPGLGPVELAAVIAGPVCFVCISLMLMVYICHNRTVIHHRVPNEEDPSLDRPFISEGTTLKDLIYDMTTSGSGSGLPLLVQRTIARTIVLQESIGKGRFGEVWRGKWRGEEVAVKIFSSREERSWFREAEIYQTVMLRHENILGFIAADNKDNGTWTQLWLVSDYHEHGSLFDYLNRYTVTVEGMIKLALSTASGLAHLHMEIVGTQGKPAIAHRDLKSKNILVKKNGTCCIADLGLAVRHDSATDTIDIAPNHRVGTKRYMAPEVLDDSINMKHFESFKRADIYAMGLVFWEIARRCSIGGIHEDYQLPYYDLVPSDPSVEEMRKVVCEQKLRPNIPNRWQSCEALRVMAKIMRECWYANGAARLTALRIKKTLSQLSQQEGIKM
ROCK2, sequence (O75116 whole entry): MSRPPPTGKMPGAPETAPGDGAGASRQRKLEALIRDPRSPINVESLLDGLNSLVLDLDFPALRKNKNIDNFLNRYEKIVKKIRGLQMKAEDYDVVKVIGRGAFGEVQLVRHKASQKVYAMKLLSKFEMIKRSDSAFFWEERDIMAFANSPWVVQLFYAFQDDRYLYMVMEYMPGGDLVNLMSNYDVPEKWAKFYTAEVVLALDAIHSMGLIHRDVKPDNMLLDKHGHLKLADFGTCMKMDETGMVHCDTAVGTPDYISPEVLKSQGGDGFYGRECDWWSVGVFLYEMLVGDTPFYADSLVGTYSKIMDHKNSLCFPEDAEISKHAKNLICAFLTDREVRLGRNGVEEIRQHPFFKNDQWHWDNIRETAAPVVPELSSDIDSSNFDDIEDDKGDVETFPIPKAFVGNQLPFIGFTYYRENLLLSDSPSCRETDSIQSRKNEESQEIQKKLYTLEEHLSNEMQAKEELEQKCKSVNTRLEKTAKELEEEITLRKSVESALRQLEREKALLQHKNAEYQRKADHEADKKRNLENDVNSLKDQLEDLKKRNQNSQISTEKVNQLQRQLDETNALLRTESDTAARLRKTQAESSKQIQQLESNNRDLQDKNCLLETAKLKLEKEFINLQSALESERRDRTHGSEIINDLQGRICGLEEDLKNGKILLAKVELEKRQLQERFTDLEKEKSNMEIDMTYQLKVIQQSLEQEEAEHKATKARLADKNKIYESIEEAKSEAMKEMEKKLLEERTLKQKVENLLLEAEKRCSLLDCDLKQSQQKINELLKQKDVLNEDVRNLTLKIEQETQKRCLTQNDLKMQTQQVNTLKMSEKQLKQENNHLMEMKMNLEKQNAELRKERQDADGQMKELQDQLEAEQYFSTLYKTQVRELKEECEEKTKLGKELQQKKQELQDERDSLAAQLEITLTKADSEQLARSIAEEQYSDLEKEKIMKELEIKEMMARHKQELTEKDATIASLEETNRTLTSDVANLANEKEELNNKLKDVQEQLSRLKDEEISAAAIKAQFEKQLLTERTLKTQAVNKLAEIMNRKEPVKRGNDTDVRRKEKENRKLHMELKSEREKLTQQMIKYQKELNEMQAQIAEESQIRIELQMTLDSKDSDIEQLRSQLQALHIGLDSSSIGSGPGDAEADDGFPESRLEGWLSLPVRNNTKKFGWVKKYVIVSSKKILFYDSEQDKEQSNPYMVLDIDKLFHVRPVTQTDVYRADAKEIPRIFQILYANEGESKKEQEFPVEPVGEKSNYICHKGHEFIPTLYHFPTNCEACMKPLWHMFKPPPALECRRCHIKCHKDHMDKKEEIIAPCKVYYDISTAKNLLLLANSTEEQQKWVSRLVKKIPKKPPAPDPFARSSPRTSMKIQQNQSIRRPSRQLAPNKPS
CSNK1G3, sequence (Q9Y6M4 whole entry): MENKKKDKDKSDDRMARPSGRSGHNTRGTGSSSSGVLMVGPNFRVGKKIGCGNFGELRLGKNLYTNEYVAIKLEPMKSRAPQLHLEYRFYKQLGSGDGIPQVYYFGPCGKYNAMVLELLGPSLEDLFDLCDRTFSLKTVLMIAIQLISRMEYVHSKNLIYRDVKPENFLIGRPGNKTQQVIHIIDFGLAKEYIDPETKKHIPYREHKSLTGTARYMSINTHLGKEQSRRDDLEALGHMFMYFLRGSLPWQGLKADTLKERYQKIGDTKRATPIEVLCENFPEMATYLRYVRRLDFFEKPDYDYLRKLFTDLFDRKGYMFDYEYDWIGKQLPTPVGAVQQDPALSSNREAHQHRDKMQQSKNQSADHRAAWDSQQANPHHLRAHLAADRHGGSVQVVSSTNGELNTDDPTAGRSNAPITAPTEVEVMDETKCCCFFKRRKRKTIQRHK
PIK3C2B, sequence (O00750 whole entry): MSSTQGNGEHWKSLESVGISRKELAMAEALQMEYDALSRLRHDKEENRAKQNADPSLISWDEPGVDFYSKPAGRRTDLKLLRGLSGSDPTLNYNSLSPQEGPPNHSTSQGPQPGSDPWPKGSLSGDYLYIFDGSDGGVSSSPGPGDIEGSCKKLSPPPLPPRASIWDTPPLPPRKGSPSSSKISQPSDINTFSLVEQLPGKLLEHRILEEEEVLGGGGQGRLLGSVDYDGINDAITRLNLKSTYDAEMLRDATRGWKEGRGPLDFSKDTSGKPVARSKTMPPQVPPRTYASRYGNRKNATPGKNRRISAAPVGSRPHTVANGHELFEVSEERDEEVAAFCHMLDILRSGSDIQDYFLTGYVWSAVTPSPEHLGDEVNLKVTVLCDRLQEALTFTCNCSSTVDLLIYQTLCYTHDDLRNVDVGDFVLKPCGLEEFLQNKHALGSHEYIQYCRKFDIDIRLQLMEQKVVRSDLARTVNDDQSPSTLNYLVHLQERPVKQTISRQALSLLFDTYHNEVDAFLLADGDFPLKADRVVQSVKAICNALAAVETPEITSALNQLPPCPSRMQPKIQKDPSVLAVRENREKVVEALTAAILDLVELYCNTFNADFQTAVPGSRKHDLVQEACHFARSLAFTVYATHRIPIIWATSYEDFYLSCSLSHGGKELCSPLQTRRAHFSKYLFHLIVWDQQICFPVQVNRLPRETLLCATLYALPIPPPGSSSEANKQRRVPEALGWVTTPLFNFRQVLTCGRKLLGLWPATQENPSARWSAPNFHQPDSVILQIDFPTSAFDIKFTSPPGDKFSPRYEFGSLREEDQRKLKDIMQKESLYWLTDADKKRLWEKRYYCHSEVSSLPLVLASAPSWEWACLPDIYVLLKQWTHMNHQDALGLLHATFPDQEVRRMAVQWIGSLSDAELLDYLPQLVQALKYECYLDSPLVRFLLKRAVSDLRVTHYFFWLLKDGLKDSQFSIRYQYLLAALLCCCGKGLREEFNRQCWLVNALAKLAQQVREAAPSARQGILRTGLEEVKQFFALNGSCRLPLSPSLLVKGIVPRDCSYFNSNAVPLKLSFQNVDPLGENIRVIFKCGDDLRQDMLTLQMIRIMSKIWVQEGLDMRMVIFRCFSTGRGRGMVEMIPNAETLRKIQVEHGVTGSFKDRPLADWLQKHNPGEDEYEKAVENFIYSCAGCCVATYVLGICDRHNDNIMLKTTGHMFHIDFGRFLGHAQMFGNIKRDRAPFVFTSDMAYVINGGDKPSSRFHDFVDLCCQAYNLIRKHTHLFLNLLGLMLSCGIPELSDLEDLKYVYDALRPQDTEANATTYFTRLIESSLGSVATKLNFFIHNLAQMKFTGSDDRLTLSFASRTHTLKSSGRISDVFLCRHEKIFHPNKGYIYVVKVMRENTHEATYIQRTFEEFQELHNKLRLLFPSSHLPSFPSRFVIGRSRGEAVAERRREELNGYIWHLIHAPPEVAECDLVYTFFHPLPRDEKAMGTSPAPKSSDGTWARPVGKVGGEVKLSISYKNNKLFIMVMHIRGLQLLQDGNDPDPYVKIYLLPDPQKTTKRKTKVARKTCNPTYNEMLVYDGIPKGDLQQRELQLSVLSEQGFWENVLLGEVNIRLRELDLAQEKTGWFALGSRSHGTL
ACVR2B, sequence (Q13705 whole entry): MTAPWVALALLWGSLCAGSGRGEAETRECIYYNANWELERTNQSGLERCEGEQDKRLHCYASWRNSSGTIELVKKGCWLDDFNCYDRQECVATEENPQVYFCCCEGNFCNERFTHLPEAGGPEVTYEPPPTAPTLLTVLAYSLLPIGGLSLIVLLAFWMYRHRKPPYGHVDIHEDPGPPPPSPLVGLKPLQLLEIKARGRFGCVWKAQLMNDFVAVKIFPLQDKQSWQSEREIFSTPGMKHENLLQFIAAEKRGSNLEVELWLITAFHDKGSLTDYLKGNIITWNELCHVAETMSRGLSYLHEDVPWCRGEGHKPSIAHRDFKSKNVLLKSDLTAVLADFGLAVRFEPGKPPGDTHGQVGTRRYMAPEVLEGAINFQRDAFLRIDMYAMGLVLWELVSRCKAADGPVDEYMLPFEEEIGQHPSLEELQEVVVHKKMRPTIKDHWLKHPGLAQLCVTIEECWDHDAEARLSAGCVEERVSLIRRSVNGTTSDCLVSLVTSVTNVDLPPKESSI
SGK2, sequence (Q9HBY8 whole entry): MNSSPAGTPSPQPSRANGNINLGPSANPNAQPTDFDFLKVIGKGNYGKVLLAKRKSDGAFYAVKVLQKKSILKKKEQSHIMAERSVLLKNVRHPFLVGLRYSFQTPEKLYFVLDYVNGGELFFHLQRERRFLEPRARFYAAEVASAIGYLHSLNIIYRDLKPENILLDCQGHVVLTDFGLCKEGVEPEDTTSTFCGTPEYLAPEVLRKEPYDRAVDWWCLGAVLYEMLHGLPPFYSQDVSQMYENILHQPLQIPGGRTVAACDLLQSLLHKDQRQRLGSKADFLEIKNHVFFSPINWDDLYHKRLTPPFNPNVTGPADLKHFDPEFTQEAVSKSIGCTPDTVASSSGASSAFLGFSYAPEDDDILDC

With `C[C@@H]1CC(=O)NN=C1c1ccc(NN=C(C#N)C#N)cc1` [levosimendan], the remaining binding at 100 µM in [1] is 100%; at ACVR2B, 100%; at CSNK1G3 (setting [3]) it was 36%; at EGFR(L747-T751del,Sins) it was 59%; at EGFR(L858R), 63%; at GCN2(Kin.Dom.2,S808G), 100%. In addition, the remaining binding at 100 µM on LOK was found to be 70%; at MST4, 71%; at NDR2, 96%; at PAK4 it was 89%; on PIK3C2B it was 90%; at PKAC-alpha it was 94%. The remaining binding at 100 µM on RET(M918T) was 90%; at ROCK2 (setting [3]), 4.9%; at SGK2, 90%; at TGFBR1 (setting [3]) it was 48%; on WNK1, 100%; on p38-delta it was 100%. Further, the remaining binding at 10 µM at CSNK1G3 (setting [2]) amounted to 83%; on ROCK2 (setting [2]) it was 49%; on TGFBR1 (setting [2]) it was 89%.

For the origin of these results see publication PMC6576746, “Rational discovery of dual-indication multi-target PDE/Kinase inhibitor for precision anti-cancer therapy using structural systems pharmacology” (PLoS Computational Biology, 2019).
